Measurements as given in US11427544B2, “Histone deacetylase 6 inhibitors and use thereof” (TAIPEI MEDICAL UNIVERSITY, priority 2016, dated 2022).

Columns and labels:
[1] = test system: MDA-MB-231 Breast cancer cell line; test: Antiproliferative activity, MDA-MB-231; format: cell-based, human; conditions: Homo sapiens, MDA-MB-231, MDA-MB-231
Description: (§1) A study was conducted to evaluate the inhibitory activity of compounds of Formula (I) in inhibiting HDAC6, antiproliferative activity of test compounds in suppressing cancer cell growth, and selectivity of inhibiting HDAC6 over other HDAC isoforms.
(§2) The study was performed according to the protocol reported in Hsieh et al., Cell Death and Disease, 2014, April; 5:e1166.
(§3) Shown in Table 2 below are antiproliferative activities (measured by their half maximal concentration for inhibiting cell growth, i.e., GI50) of the test compounds against various cancer cell lines.

[2] = test system: BJAB Burkitt lymphoma-derived B-cell; test: Tumor growth inhibition, BJAB xenograft; format: in vivo, athymic nude mice; conditions: qd, intraperitoneal
Description: (§4) An in vivo study was conducted to evaluate the efficacy of compounds of Formula (I) in suppressing tumor growth in multiple human cancer types.
(§5) Eight-week-old athymic nude mice were group-housed under conditions of constant photoperiod (12 h light/12 h dark at 21-23° C. and 60-85% humidity) with ad libitum access to sterilized food and water. All animal experiments followed ethical standards, and protocols were reviewed and approved by the Animal Use and Management Committee of National Taiwan University. Each mouse was inoculated subcutaneously with 1×10^6˜1×10^7 human cancer cells in a total volume of 0.1 mL serum-free medium containing 50% Matrigel (BD Biosciences). As tumors became established (˜100 mm^3), mice were randomized to various groups to be treated with pre-determined materials (n=6-8/group): (i) control group: 0.5% DMSO/0.5% Cremophor/90% D5W and (ii) treatment groups: Compounds 12 and 28 at pre-determined doses daily. Mice received treatment by intraperitoneal injection for the duration of the study. Tumors were measured weekly using calipers. Tumor size, in mm^3, was calculated according to the formula: Tumor volume=(w^2×l)/2, where w and 1 respectively represent the width and length (both in mm) of the tumor.

[3] = test system: T98 Glioblastoma cell line; test: Antiproliferative activity, T98; format: cell-based, human; conditions: Homo sapiens, T98, T98
Description: as §1, §2, §3

[4] = test system: A549 lung cancer cell line; test: Antiproliferative activity, A549; format: cell-based, human; conditions: Homo sapiens
Description: as §1, §2, §3

[5] = test system: HL-60 Acute promyelocytic leukemia; test: Tumor growth inhibition, HL-60 xenograft; format: in vivo, athymic nude mice; conditions: qd, intraperitoneal
Description: as §4, §5

## O=C(NO)c1ccc(CNc2cccc3cccnc23)cc1 [Compound 28, N-hydroxy-4-((quinolin-8-ylamino)methyl)benzamide]
[1]
  GI50: 1.89 ± 0.33 µM
[2]; 25 mg/kg
  % TGI: 40.8%
[2]; 50 mg/kg
  % TGI: 74.0%
[3]
  GI50: 9.89 ± 0.92 µM
[4]
  GI50: 5.24 ± 0.18 µM
[5]; 25 mg/kg
  % TGI: 47.4%
[5]; 50 mg/kg
  % TGI: 61.1%
